# Test results published in the supplement of paper PMC10307832.
# Compound: Cc1cnc(Nc2ccc(OCCN3CCCC3)cc2)nc1Nc1cccc(S(=O)(=O)NC(C)(C)C)c1 [Fedratinib] + CC(=O)c1c(C)c2cnc(Nc3ccc(N4CCNCC4)cn3)nc2n(C2CCCC2)c1=O [Palbociclib] (partner 0.5 µM)
# Assay: relative viability (nuclei count vs DMSO), 5 days (fraction); higher = more cells survive
# Conditions: first compound 1 µM
# Summary of the method: (§1)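 Lung cancer cell lines in 1536-well plates got either a single drug or a fixed anchor-drug dose together with five library-drug doses (not always all listed) in √10 steps, by pin tool, on the day after seeding. Nuclei were counted after 5 days, and relative viability is the treated-to-vehicle ratio of nuclei counts. Values are medians of duplicate plates.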
row,Cell Line,relative viability
1,NCI-H322M,0.454
2,LCLC-97TM1,0.183
3,NCI-H2009,0.161
4,NCI-H1395,0.493
5,NCI-H1793,0.313
6,ABC-1,0.609

# Compound: Cc1cnc(Nc2ccc(OCCN3CCCC3)cc2)nc1Nc1cccc(S(=O)(=O)NC(C)(C)C)c1 [Fedratinib] + C[C@@H](Oc1cc(-c2cnn(C3CCNCC3)c2)cnc1N)c1c(Cl)ccc(F)c1Cl [Crizotinib] (partner 1 µM)
# Assay: as above
# Conditions: first compound 0.1 µM
# Summary of the method: as §1
row,Cell Line,relative viability
1,NCI-H727,0.791
2,NCI-H1650,0.706
3,EBC-1,0.184
4,NCI-H1703,0.629
5,NCI-H1993,0.747
6,SW 1573,0.747
7,NCI-H838,0.669
8,LCLC-103H,1.07
9,NCI-H520,0.716
10,NCI-H2126,1.01
11,EMC-BAC-2,0.615
12,NCI-H2085,0.769
13,Calu-6,0.753
14,HCC-366,0.21
15,NCI-H1666,1.03
16,NCI-H596,0.983
17,NCI-H2087,0.735
18,SK-MES-1,1.04
19,H3255,0.873
20,COR-L23,0.55

row,Cell Line,relative viability
1,COR-L 105,0.539
2,IA-LM,0.805
3,LOU-NH91,0.701
4,ChaGo-K-1,0.851
5,NCI-H2170,1.12
6,NCI-H2405,0.796
7,HOP-62,0.786
8,HCC-44,0.797
9,A549,0.638
10,LU99A,0.427
11,BEN,0.716
12,HARA,1.16
13,HCC-78,0.346
14,NCI-H322M,0.949
15,LCLC-97TM1,0.353
16,NCI-H2009,1.04
17,NCI-H1299,0.884
18,NCI-H1563,0.898
19,ABC-1,0.566

# Same assay, conditions: first compound 0.3162 µM
row,Cell Line,relative viability
1,NCI-H727,0.688
2,NCI-H1650,0.926
3,EBC-1,0.213
4,NCI-H1703,0.51
5,NCI-H1993,0.773
6,SW 1573,0.733
7,NCI-H838,0.847
8,LCLC-103H,0.922
9,NCI-H520,0.703
10,NCI-H2126,0.989
11,EMC-BAC-2,0.73
12,NCI-H2085,0.953
13,Calu-6,0.701
14,HCC-366,0.5
15,NCI-H1666,0.994
16,NCI-H596,1.01
17,LK-2,0.187
18,NCI-H2087,0.879
19,SK-MES-1,0.992
20,H3255,0.805

row,Cell Line,relative viability
1,COR-L23,0.526
2,COR-L 105,0.686
3,IA-LM,0.589
4,LOU-NH91,0.764
5,ChaGo-K-1,1.06
6,NCI-H2170,1.07
7,NCI-H2405,0.849
8,HOP-62,0.891
9,HCC-44,0.756
10,A549,0.609
11,LU99A,0.618
12,BEN,0.91
13,HARA,1.04
14,NCI-H322M,0.877
15,LCLC-97TM1,0.24
16,NCI-H2009,0.977
17,NCI-H1299,0.946
18,NCI-H1563,0.893
19,ABC-1,1.1

# Same assay, conditions: first compound 1 µM
row,Cell Line,relative viability
1,NCI-H727,0.661
2,NCI-H1650,0.888
3,EBC-1,0.185
4,NCI-H1703,0.533
5,NCI-H1993,0.848
6,SW 1573,0.709
7,NCI-H838,0.745
8,LCLC-103H,1.01
9,NCI-H520,0.594
10,NCI-H2126,0.996
11,EMC-BAC-2,0.7
12,NCI-H2085,0.812
13,Calu-6,0.677
14,HCC-366,0.416
15,NCI-H1666,0.843
16,NCI-H596,0.973
17,LK-2,0.214
18,NCI-H2087,0.831
19,SK-MES-1,0.923
20,H3255,0.723

row,Cell Line,relative viability
1,COR-L23,0.486
2,COR-L 105,0.391
3,IA-LM,0.736
4,LOU-NH91,0.75
5,ChaGo-K-1,0.975
6,NCI-H2170,0.871
7,NCI-H2405,0.818
8,HOP-62,0.784
9,HCC-44,0.85
10,A549,0.687
11,LU99A,0.509
12,BEN,0.784
13,HARA,1.05
14,HCC-78,0.305
15,NCI-H322M,0.966
16,LCLC-97TM1,0.334
17,NCI-H2009,0.884
18,NCI-H1299,0.94
19,NCI-H1563,0.842
20,ABC-1,0.769

# Compound: Cc1cnc(Nc2ccc(OCCN3CCCC3)cc2)nc1Nc1cccc(S(=O)(=O)NC(C)(C)C)c1 [Fedratinib] + O=C(c1cc(Cc2n[nH]c(=O)c3ccccc23)ccc1F)N1CCN(C(=O)C2CC2)CC1 [Olaparib] (partner 8 µM)
# Assay: as above
# Conditions: first compound 0.1 µM
# Summary of the method: as §1
row,Cell Line,relative viability
1,NCI-H2342,0.462
2,NCI-H727,0.732
3,NCI-H1650,0.835
4,EBC-1,0.609
5,NCI-H1993,0.949
6,SW 1573,0.539
7,NCI-H838,0.677
8,LCLC-103H,0.819
9,NCI-H520,0.306
10,NCI-H2126,0.927
11,EMC-BAC-2,0.493
12,NCI-H2085,0.73
13,Calu-6,0.618
14,HCC-366,0.525
15,NCI-H1666,0.792
16,NCI-H596,0.643
17,LK-2,0.611
18,NCI-H2087,0.534
19,NCI-H1648,0.655
20,SK-MES-1,0.806
21,H3255,0.532
22,COR-L23,0.326

row,Cell Line,relative viability
1,COR-L 105,0.669
2,IA-LM,0.829
3,LOU-NH91,0.847
4,ChaGo-K-1,0.469
5,NCI-H2170,0.63
6,NCI-H2405,0.837
7,HOP-62,0.712
8,HCC-44,0.928
9,A549,0.391
10,NCI-H522,0.655
11,LU99A,0.262
12,BEN,1.07
13,HARA,0.785
14,SW 900,0.95
15,HCC-78,0.847
16,NCI-H322M,0.861
17,LCLC-97TM1,0.588
18,NCI-H2009,0.692
19,NCI-H1395,0.416
20,NCI-H1299,0.955
21,NCI-H1793,0.998
22,ABC-1,0.657

# Same assay, conditions: first compound 0.3162 µM
row,Cell Line,relative viability
1,NCI-H2342,0.456
2,NCI-H727,0.787
3,NCI-H1650,0.726
4,EBC-1,0.654
5,NCI-H1703,0.359
6,NCI-H1993,1.01
7,SW 1573,0.502
8,NCI-H838,0.837
9,LCLC-103H,0.753
10,NCI-H520,0.347
11,NCI-H2126,0.939
12,EMC-BAC-2,0.455
13,NCI-H2085,0.824
14,Calu-6,0.588
15,HCC-366,0.325
16,NCI-H1666,0.751
17,NCI-H596,0.6
18,LK-2,0.624
19,NCI-H2087,0.49
20,NCI-H1648,0.59
21,SK-MES-1,0.654
22,H3255,0.518
23,COR-L23,0.381

row,Cell Line,relative viability
1,COR-L 105,0.693
2,IA-LM,0.751
3,LOU-NH91,0.941
4,ChaGo-K-1,0.402
5,NCI-H2170,0.581
6,NCI-H2405,0.835
7,HOP-62,0.352
8,HCC-44,0.945
9,A549,0.269
10,NCI-H522,0.643
11,LU99A,0.264
12,BEN,1.01
13,HARA,0.826
14,SW 900,0.887
15,HCC-78,0.87
16,NCI-H322M,0.772
17,LCLC-97TM1,0.386
18,NCI-H2009,0.694
19,NCI-H1395,0.468
20,NCI-H1299,0.881
21,NCI-H1793,0.941
22,ABC-1,0.984

# Same assay, conditions: first compound 1 µM
row,Cell Line,relative viability
1,NCI-H2342,0.472
2,NCI-H727,0.741
3,NCI-H1650,0.674
4,EBC-1,0.551
5,NCI-H1703,0.291
6,NCI-H1993,0.839
7,SW 1573,0.474
8,NCI-H838,0.6
9,LCLC-103H,0.773
10,NCI-H520,0.29
11,NCI-H2126,0.938
12,EMC-BAC-2,0.472
13,NCI-H2085,0.765
14,Calu-6,0.55
15,HCC-366,0.345
16,NCI-H1666,0.747
17,NCI-H596,0.572
18,LK-2,0.698
19,NCI-H2087,0.425
20,NCI-H1648,0.691
21,SK-MES-1,0.479
22,H3255,0.522
23,COR-L23,0.302

row,Cell Line,relative viability
1,COR-L 105,0.708
2,IA-LM,0.819
3,LOU-NH91,0.91
4,ChaGo-K-1,0.391
5,NCI-H2170,0.562
6,NCI-H2405,0.802
7,HOP-62,0.518
8,HCC-44,0.964
9,A549,0.354
10,NCI-H522,0.615
11,LU99A,0.231
12,BEN,0.972
13,HARA,0.557
14,SW 900,0.695
15,HCC-78,0.827
16,NCI-H322M,0.643
17,LCLC-97TM1,0.428
18,NCI-H2009,0.649
19,NCI-H1395,0.444
20,NCI-H1299,0.904
21,NCI-H1793,0.775
22,ABC-1,0.822
